Test results: patent publication US12202815B2, “Selective androgen receptor degrader (SARD) ligands and methods of use thereof” (priority 2018, dated 2025)
Several values for one entry are separate records, joined by “and”; a condition that tells them apart may be missing. Equal entries are not always repeated. Entries after “also recorded” stand apart in the source; their conditions may differ. Where two headings read alike, the source gives them in different places.

Tests used:
[1] = type: in vitro ADME; details: human liver microsomes
Description: (§1) The assay was done in a final volume of 0.5 ml in duplicates (n=2). […] After pre-incubation, reaction was started by addition of 1 mM NADPH (pre-incubated at 37° C.). Incubations were carried out in triplicate and at various time-points (0, 5, 10, 15, 30 and 60 minutes) 100 μl aliquots were removed and quenched with 100 μl of acetonitrile containing internal standard. Samples were vortex mixed and centrifuged at 4000 rpm for 10 minutes. The supernatants were transferred to 96 well plates and submitted for LC-MS/MS analysis. As control, sample incubations done in absence of NADPH were included. From % PCR (% Parent Compound Remaining), rate of compound disappearance is determined (slope) and in vitro CLint (μl/min/mg protein) was calculated.

[2] = RLM metabolism half-life; type: in vitro ADME; details: rat liver microsomes
Description: as §1

[3] = Pharmacokinetics in male Sprague Dawley rats (oral 7 days, iv Day 1)
Description: At initial dosing, the animals were 12 weeks of age. The animals were group housed (up to three animals/cage/group) in polycarbonate cages with hardwood chip bedding. […] Water was provided fresh daily, ad libitum. […] As necessary, the 12-hour dark cycle was interrupted to accommodate study procedures. […] Individual doses were calculated based on body weights recorded on Day 1 and Day 7 of dose administration. […] A single intravenous dose was administered via a tail vein and blood sample on Day 1.
Animals were weighed at the time of animal selection and on Day 1 and Day 7 of dose administration.
Centrifugation began within 1 hour of collection. Plasma was placed into 96-well tubes with barcode labels. Plasma was maintained on dry ice prior to storage at approximately −70° C. Drug concentrations were measured by established chromatography/mass spectrometry (LC-MS/MS) methods.

[4] = High dose Hershberger experiment, 7 days oral; type: in vivo, Sprague Dawley rat; details: 100 mpk oral 7 days, individual animals
Description: Body weights were recorded on day 0 and day 7 (Table 4B). On day 7, animals were sacrificed and organs were observed.

[5] = in vivo; details: male, Sprague Dawley, rat, 20 mpk
[6] = for serum drug level (bioavailability): rats dosed at 20 mg/kg
[7] = for metabolism (in words): data not shown
[8] = system: full length AR; assay: LNCaP or AD1 degradation (AR FL), Western blot; type: cell-based
[9] = target: T1, AR (Rattus norvegicus, UniProt P15207); details: castrated rats, 20 mg/kg for 13 days
T1 sequence (P15207 1-902): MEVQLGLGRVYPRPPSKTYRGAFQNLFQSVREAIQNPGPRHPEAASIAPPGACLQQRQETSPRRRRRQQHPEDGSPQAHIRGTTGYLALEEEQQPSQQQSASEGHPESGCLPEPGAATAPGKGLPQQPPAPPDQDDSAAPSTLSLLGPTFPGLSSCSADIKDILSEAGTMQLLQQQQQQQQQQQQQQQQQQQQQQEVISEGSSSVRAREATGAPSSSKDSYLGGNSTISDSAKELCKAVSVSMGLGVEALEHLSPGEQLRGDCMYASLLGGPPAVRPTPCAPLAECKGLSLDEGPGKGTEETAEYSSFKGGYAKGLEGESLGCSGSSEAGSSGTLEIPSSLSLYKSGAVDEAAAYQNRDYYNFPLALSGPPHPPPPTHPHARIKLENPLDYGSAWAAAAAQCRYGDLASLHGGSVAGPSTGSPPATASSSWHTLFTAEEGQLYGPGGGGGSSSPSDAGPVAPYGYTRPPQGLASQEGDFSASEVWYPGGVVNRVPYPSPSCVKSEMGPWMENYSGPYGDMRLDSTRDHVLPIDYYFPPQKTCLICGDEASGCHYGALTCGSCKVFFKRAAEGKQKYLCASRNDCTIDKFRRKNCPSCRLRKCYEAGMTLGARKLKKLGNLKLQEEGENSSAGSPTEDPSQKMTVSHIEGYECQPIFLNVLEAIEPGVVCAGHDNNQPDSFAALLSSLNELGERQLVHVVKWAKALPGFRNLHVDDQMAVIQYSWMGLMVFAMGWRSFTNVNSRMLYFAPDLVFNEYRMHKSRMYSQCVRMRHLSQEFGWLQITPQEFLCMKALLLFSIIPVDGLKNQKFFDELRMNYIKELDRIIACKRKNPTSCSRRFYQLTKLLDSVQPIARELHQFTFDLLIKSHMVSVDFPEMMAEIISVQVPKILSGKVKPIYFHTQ
Excerpt: One week after castration, the animals were randomized and dosed for 13 days p.o. as indicated below. Dosing solutions were be prepared in 20% DMSO+80% PEG. Body weights were be measured on day 1 and at the time of sacrifice. At sacrifice, prostate and seminal vesicles weights were taken.

[10] = Table 9, Group 3, oral 30 mg/kg
[11] = male, Sprague Dawley, rat, in vivo, iv, 5 mg/kg
[12] = male, Sprague Dawley, rat, in vivo, po, 5 mg/kg
[13] = male, Sprague Dawley, rat, in vivo, po, 20 mg/kg
[14] = male, Sprague Dawley, rat, in vivo, po, 30 mg/kg
[15] = male, Sprague Dawley, rat, in vivo, po, 60 mg/kg

## C[C@](O)(Cn1cc(C#N)cn1)C(=O)Nc1ccc(C#N)c(C(F)(F)F)c1 [Compound 1048]
[1]
  HLM Metabolism (H.L. min): 400 min
[2]
  RLM Metebolism (H.L. min): 86 min

## C[C@](O)(Cn1cc(Br)c(F)n1)C(=O)Nc1ccc(C#N)c(C(F)(F)F)c1 [Compound 1058]
[1]
  HLM Metabolism (H.L. min): 138 min
[3]; 20 mg/kg
  decreased exposure at the same dose as 1065: 37%
[3]; Table 10, Group 1, oral 5 mg/kg/day
  DN AUC0-24: 5350 (h * ng/mL)/(mg/kg/day)
[3]; Table 10, Group 2, oral 10 mg/kg/day
  DN AUC0-24: 4460 (h * ng/mL)/(mg/kg/day)
[3]; Table 10, Group 3, oral 20 mg/kg/day
  DN AUC0-24: 3200 (h * ng/mL)/(mg/kg/day)
[3]; Table 10, Group 4, oral 30 mg/kg/day
  DN AUC0-24: 2380 (h * ng/mL)/(mg/kg/day)
[3]; Table 10, Group 5, iv 10 mg/kg Day 1
  DN AUC0-24: 4550 (h * ng/mL)/(mg/kg/day)
[4]
  Body wt. on sac. day: 430 g and 470 g
  Day 0 body wt.: 430 g and 472 g
[2]
  RLM Metebolism (H.L. min): 400 min

## C[C@](O)(Cn1cc(Cl)c(Br)n1)C(=O)Nc1ccc(C#N)c(C(F)(F)F)c1 [Compound 1066, (S)-3-(3-Bromo-4-chloro-1H-pyrazol-1-yl)-N-(4-cyano-3-(trifluoromethyl)phenyl)-2-hydroxy-2-methylpropanamide]
[1]
  HLM Metabolism (H.L. min): 319 min
[2]
  RLM Metebolism (H.L. min): 300 min

## C[C@](O)(Cn1cc(F)cn1)C(=O)Nc1ccc(C#N)c(C(F)(F)F)c1 [Compound 1002]
[1]
  HLM Metabolism (H.L. min): 82 min
[5]
  concentration at 30 h: 33 nM
[3]; [10]
  DN AUC0-24: 2070 (h * ng/mL)/(mg/kg)
  DN Cmax: 111 (ng/mL)/(mg/kg)
[3]; [11]
  AUC0-24: 9580 ng·h/mL
  AUC(0-inf): 9600 ng·h/mL
  AUC(0-t): 9580 ng·h/mL
  C0: 2460 ng/mL
  Cmax: 2290 ng/mL
  DN AUC0-24: 1920
  Tmax: 0.083 h
  Vd: 2.14 L/kg
  clearance: 8.68 mL/min/kg
[3]; male, Sprague Dawley, rat, in vivo, iv, 5 mg/kg, elimination half-life
  half-life: 2.6 h
[3]; male, Sprague Dawley, rat, in vivo, iv, 5 mg/kg, t1/2
  half-life: 2.62 h
[3]; [12]
  AUC0-24: 6860 ng·h/mL
  AUC(0-inf): 7050 ng·h/mL
  AUC(0-t): 6860 ng·h/mL
  Cmax: 526 ng/mL
  DN AUC0-24: 1370
  Tmax: 1 h
[3]; male, Sprague Dawley, rat, in vivo, po, 5 mg/kg, t1/2
  half-life: 4.87 h
[3]; [13]
  AUC0-t: 37000 ng·h/mL
  AUC(0-t): 37000 ng·h/mL
  Cmax: 2620 ng/mL
  DN AUC0-24: 1850
  Tmax: 6 h
[3]; [14]
  Cmax: 3330 ng/mL
  Tmax: 12 h
[3]; [15]
  AUC0-24: 77500 ng·h/mL
  AUC(0-t): 77500 ng·h/mL
  Cmax: 3800 ng/mL
  DN AUC0-24: 1290
  Tmax: 1 h
[6]
  serum drug level (bioavailability): 33 nM
[2]
  RLM Metebolism (H.L. min): 78 min

## C[C@](O)(Cn1nc(F)c2cc(F)ccc21)C(=O)Nc1cnc(C#N)c(C(F)(F)F)c1 [Compound 99, (S)—N-(6-Cyano-5-(trifluoromethyl)pyridin-3-yl)-3-(3,5-difluoro-1H-indazol-1-yl)-2-hydroxy-2-methylpropanamide]
[7]
  metabolism (in words): rapid metabolism

## C[C@](O)(Cn1cc(-c2ccc(F)cc2)nn1)C(=O)Nc1ccc(C#N)c(C(F)(F)F)c1 [Compound 1045]
[6]; 20 mg/kg Hershberger experiment
  pharmacokinetic properties (in words): outstanding pharmacokinetic properties

## C[C@](O)(Cn1ccc2cc(F)ccc21)C(=O)Nc1cnc(C#N)c(C(F)(F)F)c1 [Compound 47, (S)—N-(6-Cyano-5-(trifluoromethyl)pyridin-3-yl)-3-(5-fluoro-1H-indol-1-yl)-2-hydroxy-2-methylpropanamide]
[7]
  metabolism (in words): rapid metabolism

## C[C@](O)(Cn1cc(C(F)(F)F)cn1)C(=O)Nc1ccc(C#N)c(C(F)(F)F)c1 [Compound 1017]
[7]; MLM
  DMPK (MLM) T1/2 (min): Infinity
[1]
  HLM Metabolism (H.L. min): 400 min
[2]
  RLM Metebolism (H.L. min): 400 min

## C[C@](O)(Cn1ccc2cc(F)ccc21)C(=O)Nc1ccc(C#N)c(C(F)(F)F)c1 [Compound 11]
[1]
  HLM Metabolism (H.L. min): 6 min
[8]; 3 μM, Table 3
  Degradation (% at 3 μM): 60%

## C[C@](O)(Cn1cc(F)cn1)C(=O)Nc1cnc(C#N)c(C(F)(F)F)c1 [Compound 1022]
[1]
  HLM Metabolism (H.L. min): 108 min
[5]
  concentration at 30 h: 64 nM
[6]; Table 2, rats 20 mg/kg, 24-30 hours after last dose
  Serum Conc.: 64 nM
[6]; Table 3, 20 mg/kg Hershberger
  Serum Conc.: 64 nM
[6]
  serum drug level (bioavailability): 64 nM
[2]
  RLM Metebolism (H.L. min): 146 min

## C[C@](O)(Cn1ncc(Cl)c1Br)C(=O)Nc1ccc(C#N)c(C(F)(F)F)c1 [Compound 1067, (S)-3-(5-Bromo-4-chloro-1H-pyrazol-1-yl)-N-(4-cyano-3-(trifluoromethyl)phenyl)-2-hydroxy-2-methylpropanamide]
[8]; first value of the pair, 1 μM
  SARD Activity Full Length % inhibition at 1 μM: 61%
[8]; second value of the pair, 10 μM
  SARD Activity Full Length % inhibition at 10 μM: 86%

## C[C@](O)(COc1ccc(C#N)cc1)C(=O)Nc1ccc(C#N)c(C(F)(F)F)c1 [Enobosarm]
[9]
  SV and VP re-growth, % of intact vehicle: 50-60%
[9]; 20 mg/kg
  agonist activity in ventral prostate and seminal vesicles (in words): partial agonist; also recorded: significant agonism
